This note sets out measurements from US9562034B2, “Endoparasite control agent” (The University of Tokyo, priority 2012, dated 2017).

Where two headings read alike, the source gives them in different places.

Experiment [1] relates to Haemonchus contortus L1-stage larvae. Description: In vivo activity test on Haemonchus nematode (motor ability of L1-stage larvae, 96-well plate). The note with it: twenty L1-stage larvae per well, 27° C./95% RH for 4 days, DMSO 0.78% (v/v). The procedure:
In Vivo Activity Test on Haemonchus Nematode
In a 96-well plate, twenty L1-stage larvae (Haemonchus contortus) per well were maintained so that they could freely move, and solutions of compounds of the present invention dissolved at predetermined concentrations in DMSO (the final concentration of DMSO was 0.78% (v/v)) were added at 0.5 μl/well each. The plate was kept under the conditions of 27° C./95% RH for 4 days. The motor ability of the larvae was examined and the concentration required for 50% inhibition of the motor ability (EC50) was determined. Based on the EC50 value, the activity against the Haemonchus nematode was graded according to the criterion shown below.
• A: The EC50 value is lower than 0.5 ppm. • B: The EC50 value is 0.5 ppm or higher but lower than 5 ppm. • C: The EC50 value is 5 ppm or higher.

Experiment [2] deals with T1, Ascaris suum succinate-ubiquinone reductase (mitochondrial complex II) (Ascaris suum, UniProt O44074+P92506+P92507).
T1 construct: from tissue; host or cells: mitochondria from adult Ascaris suum muscle
Description: In vitro inhibitory activity on Ascaris suum succinate-ubiquinone reductase (mitochondrial complex II). The format is biochemical. The procedure: In Vitro Measurement of Inhibitory Activity on Ascaris suum Succinate-Ubiquinone Reductase (Mitochondrial Complex II)
To a solution containing 50 mM potassium phosphate (pH 7.4) and 0.1% (w/v) sucrose monolaurate, an electron acceptor ubiquinone-2 (UQ2) was added at a final concentration of 60 μM, and the mixture was allowed to stand at 25° C. for 20 minutes. To this, potassium cyanide (final concentration: 2 mM) and mitochondria prepared from adult Ascaris suum muscle were added, and thorough mixing was done. To aliquots of the mixture, an inhibitor to be tested was added at various concentrations, and the mixtures were allowed to stand at 25° C. for 3 minutes. The enzymatic reaction was initiated by addition of potassium succinate (final concentration: 10 mM).

The mark [3] stands for this setting: mitochondria from adult Ascaris suum muscle, UQ2 60 μM, potassium succinate 10 mM, 25° C., absorbance at 278 nm, read-out: Ascaris suum IC50 value (A).

T1 sequence (O44074 22-282): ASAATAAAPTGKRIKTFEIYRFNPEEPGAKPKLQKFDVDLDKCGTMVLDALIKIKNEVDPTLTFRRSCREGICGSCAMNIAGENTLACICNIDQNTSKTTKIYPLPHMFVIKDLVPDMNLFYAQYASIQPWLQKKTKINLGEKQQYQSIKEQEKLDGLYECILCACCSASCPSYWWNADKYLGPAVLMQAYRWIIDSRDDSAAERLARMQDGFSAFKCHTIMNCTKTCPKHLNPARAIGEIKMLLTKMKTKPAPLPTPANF
T1 sequence (P92506 32-188): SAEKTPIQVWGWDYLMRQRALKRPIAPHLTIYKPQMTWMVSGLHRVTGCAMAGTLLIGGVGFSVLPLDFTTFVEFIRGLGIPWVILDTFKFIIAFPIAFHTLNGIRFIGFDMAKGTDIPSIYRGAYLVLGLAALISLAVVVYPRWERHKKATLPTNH
T1 sequence (P92507 26-156): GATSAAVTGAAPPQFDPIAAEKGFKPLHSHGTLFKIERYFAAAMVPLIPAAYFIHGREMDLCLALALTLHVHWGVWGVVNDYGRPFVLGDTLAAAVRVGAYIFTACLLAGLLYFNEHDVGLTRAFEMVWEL
T1 sequence (Q33862 19-645 partner): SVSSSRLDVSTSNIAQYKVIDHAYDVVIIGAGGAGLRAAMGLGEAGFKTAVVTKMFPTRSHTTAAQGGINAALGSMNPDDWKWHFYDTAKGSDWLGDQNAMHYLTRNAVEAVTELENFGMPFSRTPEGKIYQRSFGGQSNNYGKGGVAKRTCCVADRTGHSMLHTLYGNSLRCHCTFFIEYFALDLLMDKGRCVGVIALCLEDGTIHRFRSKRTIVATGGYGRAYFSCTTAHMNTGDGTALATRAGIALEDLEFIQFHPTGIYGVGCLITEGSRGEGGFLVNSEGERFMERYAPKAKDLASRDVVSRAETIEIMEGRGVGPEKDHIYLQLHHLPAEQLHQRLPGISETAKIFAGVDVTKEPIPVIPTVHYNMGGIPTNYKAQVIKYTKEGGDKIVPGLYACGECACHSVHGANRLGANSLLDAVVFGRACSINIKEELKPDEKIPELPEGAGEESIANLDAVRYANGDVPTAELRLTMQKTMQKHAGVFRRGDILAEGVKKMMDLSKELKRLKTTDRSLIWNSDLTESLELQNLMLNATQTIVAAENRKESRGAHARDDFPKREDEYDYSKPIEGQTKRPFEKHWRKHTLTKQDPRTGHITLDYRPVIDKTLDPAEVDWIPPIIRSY

As to `O=C(NCCc1ncc(C(F)(F)F)cc1Cl)c1cccnc1Cl` [Compound 1], in experiment [1], the “Grade (EC50, concentration required for 50% inhibition of the motor ability)” value was “A (The EC50 value is lower than 0.5 ppm.)”. The concentration for half-maximal inhibition (IC50) (usually the point on the concentration scale where inhibition reaches its midpoint) in experiment [2] (setting [3]) stood at 47 nM.

In the case of `Nc1nc(C(F)(F)F)c(C(=O)NCCc2ccc(Cl)cc2Cl)s1` [Compound 2], in experiment [2] (setting [3]), the half-inhibitory concentration (IC50) was found to be 57 nM.

Take `O=C(NCCc1ncc(C(F)(F)F)cc1Cl)c1nccnc1C(F)(F)F` [Compound 3]: the “Grade (EC50, concentration required for 50% inhibition of the motor ability)” value in experiment [1] is given as “A (The EC50 value is lower than 0.5 ppm.)”. Also, the concentration for half-maximal inhibition (IC50) in experiment [2] (setting [3]) is 9.4 nM.

Take `O=C(NCCc1ccc(-c2ccc(OC(F)(F)F)cc2)cc1Cl)c1nccnc1C(F)(F)F` [Compound 4]: the IC50 in experiment [2] (setting [3]) amounted to 1.3 nM.

Take `Cc1nccnc1C(=O)NCCc1ccc(-c2ccc(OC(F)(F)F)cc2)cc1` [Compound 5]: the IC50 in experiment [2] (setting [3]) is 26 nM.

For `O=C(NCCc1ccc(Cl)cc1Cl)c1cccnc1C(F)(F)F` [Compound 6], the “Grade (EC50, concentration required for 50% inhibition of the motor ability)” value in experiment [1] is “A (The EC50 value is lower than 0.5 ppm.)”. For the same compound, the half-inhibitory concentration (IC50) in experiment [2] (setting [3]) is 4.4 nM.

Regarding `O=C(NCCc1ccc(Cl)cc1Cl)c1sccc1C(F)(F)F` [Compound 7], in experiment [1], the “Grade (EC50, concentration required for 50% inhibition of the motor ability)” value is listed as “A (The EC50 value is lower than 0.5 ppm.)”. For the same compound, the half-maximal inhibitory concentration (IC50) in experiment [2] (setting [3]) is 1.1 nM.

For `O=C(NCCc1ccc(Cl)cc1Cl)c1nccnc1C(F)(F)F` [Compound 9], the “Grade (EC50, concentration required for 50% inhibition of the motor ability)” value in experiment [1] is listed as “A (The EC50 value is lower than 0.5 ppm.)”.

As for `O=C(NCCc1ccc(F)cc1Cl)c1nccnc1C(F)(F)F` [Compound 11], the IC50 in experiment [2] (setting [3]) is 3.4 nM.

As to `O=C(NCC1(c2ccc(Cl)cc2Cl)CC1)c1nccnc1Cl` [Compound 13], the “Grade (EC50, concentration required for 50% inhibition of the motor ability)” value in experiment [1] is given as “A (The EC50 value is lower than 0.5 ppm.)”. Moreover, in experiment [2] (setting [3]), the IC50 was found to be 2.7 nM.

`CC(Cc1ccc(Cl)cc1Cl)NC(=O)c1nccnc1Cl` (stereo not drawn) [Compound 14]: the IC50 in experiment [2] (setting [3]) is 3.3 nM.

On to `CC(Cc1ccc(Cl)cc1Cl)NC(=O)c1nccnc1C(F)(F)F` (stereo not drawn) [Compound 15], for which the “Grade (EC50, concentration required for 50% inhibition of the motor ability)” value in experiment [1] is on record as “A (The EC50 value is lower than 0.5 ppm.)”.

In the case of `O=C(NCC1(c2ccc(Cl)cc2Cl)CC1)c1nccnc1C(F)(F)F` [Compound 16], the “Grade (EC50, concentration required for 50% inhibition of the motor ability)” value in experiment [1] is recorded as “A (The EC50 value is lower than 0.5 ppm.)”. In experiment [2] (setting [3]), the half-inhibitory concentration (IC50) was 1.5 nM.

With `O=C(NCCc1ccc(-c2ccc(OC(F)(F)F)cc2)cc1F)c1nccnc1Cl` [Compound 17], the “Grade (EC50, concentration required for 50% inhibition of the motor ability)” value in experiment [1] is listed as “A (The EC50 value is lower than 0.5 ppm.)”. The compound further registered an IC50 in experiment [2] of 2 nM.

With `O=C(NC1(Cc2ccc(Cl)cc2Cl)CC1)c1nccnc1C(F)(F)F` [Compound 18], in experiment [2] (setting [3]), the IC50 amounted to 3.1 nM.

In the case of `O=C(NCCc1ccc(C(F)(F)F)cc1Cl)c1nccnc1C(F)(F)F` [Compound 19], in experiment [1], the “Grade (EC50, concentration required for 50% inhibition of the motor ability)” value is listed as “A (The EC50 value is lower than 0.5 ppm.)”. For the same compound, the half-inhibitory concentration (IC50) in experiment [2] (setting [3]) came out at 1.3 nM.

For the compound `O=C(NCCc1ccc(Cl)cc1F)c1nccnc1C(F)(F)F` [Compound 20], the concentration for half-maximal inhibition (IC50) in experiment [2] (setting [3]) stood at 4.9 nM.

Regarding `O=C(NCCc1ccc(Oc2ncc(C(F)(F)F)cc2Cl)cc1Cl)c1nccnc1C(F)(F)F` [Compound 21], in experiment [1], the “Grade (EC50, concentration required for 50% inhibition of the motor ability)” value is “A (The EC50 value is lower than 0.5 ppm.)”. In experiment [2] (setting [3]), the IC50 came to 1.3 nM.

Consider `O=C(NCCc1ccc(Oc2ncc(C(F)(F)F)cc2Cl)cc1Cl)c1cccnc1Cl` [Compound 22], for which, in experiment [1], the “Grade (EC50, concentration required for 50% inhibition of the motor ability)” value was “A (The EC50 value is lower than 0.5 ppm.)”. Further, the IC50 in experiment [2] (setting [3]) turned out to be 1.7 nM.

Consider `CC(Cc1ccc(Cl)cc1F)NC(=O)c1nccnc1Cl` (stereo not drawn) [Compound 23], for which the “Grade (EC50, concentration required for 50% inhibition of the motor ability)” value in experiment [1] is listed as “A (The EC50 value is lower than 0.5 ppm.)”. The half-inhibitory concentration (IC50) in experiment [2] (setting [3]) is 10 nM.

On to `O=C(NCCc1cc(F)c(Cl)cc1F)c1nccnc1C(F)(F)F` [Compound 24], for which, in experiment [1], the “Grade (EC50, concentration required for 50% inhibition of the motor ability)” value is “A (The EC50 value is lower than 0.5 ppm.)”. The half-inhibitory concentration (IC50) in experiment [2] (setting [3]) amounted to 2 nM.

Take `O=C(NCCc1cc(F)c(Cl)cc1F)c1cccnc1Cl` [Compound 25]: in experiment [1], the “Grade (EC50, concentration required for 50% inhibition of the motor ability)” value is given as “A (The EC50 value is lower than 0.5 ppm.)”. Further, the IC50 in experiment [2] (setting [3]) worked out at 18 nM.

For `CC(Cc1cc(F)c(F)cc1Cl)NC(=O)c1nccnc1C(F)(F)F` (stereo not drawn) [Compound 26], the IC50 in experiment [2] (setting [3]) is 2.9 nM.

In the case of `O=C(NCCc1cc(F)c(F)cc1Cl)c1nccnc1C(F)(F)F` [Compound 27], the concentration for half-maximal inhibition (IC50) in experiment [2] (setting [3]) came out at 2.2 nM.

Take `O=C(NCCc1cc(F)c(Cl)cc1Cl)c1nccnc1C(F)(F)F` [Compound 28]: in experiment [1], the “Grade (EC50, concentration required for 50% inhibition of the motor ability)” value is “A (The EC50 value is lower than 0.5 ppm.)”. Besides, the IC50 in experiment [2] (setting [3]) came to 1.3 nM.

Turning to `O=C(NCCc1cc(F)c(Cl)cc1Cl)c1cccnc1Cl` [Compound 29], in experiment [2] (setting [3]), the IC50 was 6.7 nM.

In the case of `Cc1cccnc1C(=O)NCCc1ccc(Cl)cc1Cl` [Compound 30], the IC50 in experiment [2] (setting [3]) is 6 nM.

In the case of `O=C(NCCc1ccc(Cl)cc1Cl)c1cnccc1C(F)(F)F` [Compound 31], the concentration for half-maximal inhibition (IC50) in experiment [2] (setting [3]) was 42 nM.

For `O=C(NCCc1ccc(Cl)cc1Cl)C1=C(C(F)(F)F)OCCS1` [Compound 33], the “Grade (EC50, concentration required for 50% inhibition of the motor ability)” value in experiment [1] is listed as “A (The EC50 value is lower than 0.5 ppm.)”. In addition, the IC50 in experiment [2] amounted to 7.3 nM.

Consider `Cc1c(C(=O)NCCc2ccc(Cl)cc2Cl)c(C(F)(F)F)nn1C` [Compound 35], for which the “Grade (EC50, concentration required for 50% inhibition of the motor ability)” value in experiment [1] is “B (The EC50 value is 0.5 ppm or higher but lower than 5 ppm.)”.

Consider `Cc1nc(C(F)(F)F)c(C(=O)NCCc2ccc(Cl)cc2Cl)s1` [Compound 38], for which the “Grade (EC50, concentration required for 50% inhibition of the motor ability)” value in experiment [1] is “B (The EC50 value is 0.5 ppm or higher but lower than 5 ppm.)”.

For `C[C@@H](Cn1nc(Br)c(Br)c1Br)NC(=O)c1cccnc1Cl` [Compound 41], in experiment [2] (setting [3]), the half-inhibitory concentration (IC50) was 42 nM.

For the compound `C[C@@H](Cn1nc(Br)c(Br)c1Br)NC(=O)c1cccnc1C(F)(F)F` [Compound 42], the concentration for half-maximal inhibition (IC50) in experiment [2] (setting [3]) came out at 13 nM.

Take `C[C@@H](Cn1nc(C(F)(F)F)c(Cl)c1Cl)NC(=O)c1nccnc1C(F)(F)F` [Compound 43]: in experiment [2] (setting [3]), the half-inhibitory concentration (IC50) is 9.9 nM.

For the compound `C[C@@H](COc1ncc(C(F)(F)F)cc1Cl)NC(=O)c1cccnc1Cl` [Compound 44], the IC50 in experiment [2] (setting [3]) worked out at 20 nM.

For `O=C(NCCc1ccc(Oc2ccc(C(F)(F)F)cn2)cc1Cl)c1cccnc1Cl` [Compound 45], the IC50 in experiment [2] (setting [3]) worked out at 4.5 nM.

On to `CC(Cc1ccc(Cl)cc1Cl)NC(=O)c1nccnc1I` (stereo not drawn) [Compound 47], for which the 50% inhibitory concentration (IC50) in experiment [2] is 2.3 nM.

For the compound `Cc1nccnc1C(=O)NCCc1ccc(-c2ccc(OC(F)(F)F)cc2)cc1` [Compound 48], in experiment [1], the “Grade (EC50, concentration required for 50% inhibition of the motor ability)” value is “A (The EC50 value is lower than 0.5 ppm.)”.

For the compound `Cc1occc1C(=O)NCCc1ccc(Cl)cc1Cl` [Compound 50], in experiment [2] (setting [3]), the IC50 turned out to be 1.6 nM.
